Bounds are passed on as bounds.

The target of one experiment is T1, PIP4K2C (Homo sapiens, UniProt Q8TBX8).
T1 sequence (Q8TBX8 1-421): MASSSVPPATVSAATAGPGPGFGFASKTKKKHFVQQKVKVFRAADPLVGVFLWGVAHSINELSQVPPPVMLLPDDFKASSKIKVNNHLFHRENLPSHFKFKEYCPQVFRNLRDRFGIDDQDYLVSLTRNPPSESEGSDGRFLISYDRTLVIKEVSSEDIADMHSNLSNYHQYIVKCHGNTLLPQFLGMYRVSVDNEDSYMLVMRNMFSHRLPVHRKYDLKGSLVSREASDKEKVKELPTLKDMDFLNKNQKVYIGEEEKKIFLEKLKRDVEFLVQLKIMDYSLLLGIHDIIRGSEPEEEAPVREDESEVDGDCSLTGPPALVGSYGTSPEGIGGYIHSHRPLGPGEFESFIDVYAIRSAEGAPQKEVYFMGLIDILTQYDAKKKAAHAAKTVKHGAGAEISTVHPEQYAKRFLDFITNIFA
Put plainly: HiBiT PIP4K2C degradation assay in MOLT-4 cells (endogenous PIP4K2C C-terminally tagged with HiBiT). It is filed as cell-based. Set-up: untagged in primary human PBMCs and monocyte-derived dendritic cells. The settings on record: 6 hours of incubation time, rather than 24 hours; MOLT-4, top concentration 10 micromolar; read-out: HiBIT-degradation MOLT4 PIP4k2C DC50 (6 hours, marked *). A digest of the protocol:
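Endogenous PIP4K2C was C-terminally HiBiT-tagged by CRISPR-Cas9 in MOLT-4 cells, which were treated with a 10-point, 3-fold dilution series from 10 micromolar in duplicate for 24 or 6 hours at 37 C. Remaining protein was read by HiBiT lytic luminescence, and DC50 came from a Hill fit.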
For orientation: The HiBiT peptide binds its large partner to form an active luciferase.
With `O=C1CCC(Nc2ccc(N3CCN(C4CCN(C(=O)O[C@H]5CC[C@H](Nc6ncc(F)c(-c7cccc(N8CCOCC8)c7)n6)CC5)CC4)CC3)c(F)c2)C(=O)N1` (stereo partly drawn) [Compound 673, trans-4-((5-fluoro-4-(3-morpholinophenyl)pyrimidin-2-yl)amino)cyclohexyl 4-(4-(4-((2,6-dioxopiperidin-3-yl)amino)-2-fluorophenyl)piperazin-1-yl)piperidine-1-carboxylate], the DC50 is under 500 nM.
On to `O=C1CCC(Nc2ccc(N3CCN(C4CCN(C(=O)O[C@H]5CC[C@H](Nc6ncc(F)c(-c7cccc(N8CCCOC8=O)c7)n6)CC5)CC4)CC3)c(F)c2)C(=O)N1` (stereo partly drawn) [Compound 674, trans-4-((5-fluoro-4-(3-(2-oxo-1,3-oxazinan-3-yl)phenyl)pyrimidin-2-yl)amino)cyclohexyl 4-(4-(4-((2,6-dioxopiperidin-3-yl)amino)-2-fluorophenyl)piperazin-1-yl)piperidine-1-carboxylate], for which the 50% degradation concentration (DC50) is under 500 nM.
Same read-out and setting: the same measure for `O=C1CCC(Nc2ccc(C3CCN(C4CCN(C(=O)O[C@H]5CC[C@H](Nc6ncc(F)c(-c7cccc(N8CCOCC8)c7)n6)CC5)CC4)CC3)c(F)c2)C(=O)N1` (stereo partly drawn) [Compound 676, trans-4-((5-fluoro-4-(3-morpholinophenyl)pyrimidin-2-yl)amino)cyclohexyl 4-(4-((2,6-dioxopiperidin-3-yl)amino)-2-fluorophenyl)-[1,4′-bipiperidine]-1′-carboxylate]: under 500 nM; for `O=C1CCC(Nc2ccc(C3CCN(C4CCN(C(=O)O[C@H]5CC[C@H](Nc6ncc(F)c(-c7cccc(N8CCCOC8=O)c7)n6)CC5)CC4)CC3)c(F)c2)C(=O)N1` (stereo partly drawn) [Compound 677, trans-4-((5-fluoro-4-(3-(2-oxo-1,3-oxazinan-3-yl)phenyl)pyrimidin-2-yl)amino)cyclohexyl 4-(4-((2,6-dioxopiperidin-3-yl)amino)-2-fluorophenyl)-[1,4′-bipiperidine]-1′-carboxylate]: under 500 nM.
In the case of `O=C1CCC(Nc2ccc(C3CCN(C4CCN(C(=O)O[C@H]5CC[C@H](Nc6ncc(F)c(-c7cccc(N8CCCCC8=O)c7)n6)CC5)CC4)CC3)c(F)c2)C(=O)N1` (stereo partly drawn) [Compound 678, trans-4-((5-fluoro-4-(3-(2-oxopiperidin-1-yl)phenyl)pyrimidin-2-yl)amino)cyclohexyl 4-(4-((2,6-dioxopiperidin-3-yl)amino)-2-fluorophenyl)-[1,4′-bipiperidine]-1′-carboxylate], the DC50 is under 500 nM.
For the compound `Cn1nc(C2CCC(=O)NC2=O)c2ccc(C3CCN(C[C@H]4CC[C@H](OC(=O)N5CCC(Nc6ncc(F)c(-c7cccc(-n8ccccc8=O)c7)n6)CC5)CC4)CC3)cc21` (stereo partly drawn) [Compound 679, trans-4-((4-(3-(2,6-dioxopiperidin-3-yl)-1-methyl-1H-indazol-6-yl)piperidin-1-yl)methyl)cyclohexyl 4-((5-fluoro-4-(3-(2-oxopyridin-1 (2H)-yl)phenyl)pyrimidin-2-yl)amino)piperidine-1-carboxylate], the DC50 is under 500 nM.
As for `O=C1CCC(Nc2ccc(C3CCN(CC4(O)CCC(C(=O)N5CCC(Nc6ncc(F)c(-c7cccc(-n8ccccc8=O)c7)n6)CC5)CC4)CC3)c(F)c2)C(=O)N1` (stereo not drawn) [Compound 680, trans-3-((3-fluoro-4-(1-((4-(4-((5-fluoro-4-(3-(2-oxopyridin-1 (2H)-yl)phenyl)pyrimidin-2-yl)amino)piperidine-1-carbonyl)-1-hydroxycyclohexyl)methyl)piperidin-4-yl)phenyl)amino)piperidine-2,6-dione], the DC50 was under 500 nM.

Staying with this experiment, now noted: read-out: HiBIT-degradation MOLT4 PIP4k2C DC50 (6 hours, marked *); 6 hours of incubation time, rather than 24 hours; MOLT-4, top concentration 10 micromolar.
As for `O=C1CCC(Nc2ccc(N3CCN(C4CCN(C(=O)O[C@H]5CC[C@H](Nc6ncc(F)c(-c7cccc(N8CCCCC8=O)c7)n6)CC5)CC4)CC3)c(F)c2)C(=O)N1` (stereo partly drawn) [Compound 675, trans-4-((5-fluoro-4-(3-(2-oxopiperidin-1-yl)phenyl)pyrimidin-2-yl)amino)cyclohexyl 4-(4-(4-((2,6-dioxopiperidin-3-yl)amino)-2-fluorophenyl)piperazin-1-yl)piperidine-1-carboxylate], the DC50 was under 500 nM.

Broadly, the DC50 is the concentration at which degradation of the target reaches its halfway point.
